Results from patent US6831080B2, “Cinnamide derivatives as KCNQ potassium channel modulators” (Bristol-Myers Squibb Company, priority 2001, dated 2004).

Key:
[1] = target: T1, mKCNQ2 channels (Mus musculus, UniProt Q9Z351); test: Whole-cell patch-clamp, HEK 293 stable cell line expressing mKCNQ2 channels; assay type: cell-based; details: HEK 293 mKCNQ2, Hill fit; for EC50: @ −40 mV; for Emax: HEK293, read-out: Imax (%)
T1 construct: expressed in transfected cells
Description: Whole-cell patch-clamp recordings were made from an HEK 293 stable cell line expressing mKCNQ2 channels, maintained in culture for 1-2 days. Patch pipettes had initial resistances of 2.5-4 MΩ. Currents were recorded with an EPC-9 amplifier (HEKA, Lambrecht, Germany) controlled with software (Pulse, HEKA) run on a standard lab PC. Series resistance compensation was used during current recording, and set at 80%. The series resistance (R) and cell capacitance (C) were determined electronically by subtracting the capacitive currents at the onset and offset of a 5 mV voltage step. The cancellation of whole-cell capacitance transients was virtually complete in all cells. Analog current signals were low-pass filtered at 2.9 kHz using a four-pole Bessel filter −3 dB) and stored on a local network server computer at a sampling rate of […]. All recordings were performed at room temperature (20-22° C.). The pipette solution contained (mM): KCl, 150; CaCl2, 2.5; EGTA, 5; MgCl2, 1; HEPES, 10; pH to 7.3 with KOH, and Osmolality of 290-300 mOsm. The extracellular solution contained (mM): NaCl, 140; KCl, 2.5; CaCl2, 2.5; MgCl2, 1; glucose, 10; HEPES, 10; pH to 7.3 with NaOH, and Osmolality of 305-310 mOsm
Concentration response data were generated by measuring the difference in the steady-state amplitude of current in the presence of compound at the end of a 600 ms voltage-clamp step from a holding potential of −80 mV. The concentration-response data were fitted with Hill-type equations: […]
where I is the steady-state current at a given concentration of agonist [A]; and Imax, EC50 and nH are parameters estimated from the curve fit. In some cases the concentration-response data were fitted with equations consisting of the sum of two Hill-type components. Current-voltage (I/V) relationships for agonist-evoked currents were obtained by performing 600 ms voltage steps (−110 mV to +40 mV) in the absence and presence of agonist.

T1 sequence (Q9Z351 whole entry): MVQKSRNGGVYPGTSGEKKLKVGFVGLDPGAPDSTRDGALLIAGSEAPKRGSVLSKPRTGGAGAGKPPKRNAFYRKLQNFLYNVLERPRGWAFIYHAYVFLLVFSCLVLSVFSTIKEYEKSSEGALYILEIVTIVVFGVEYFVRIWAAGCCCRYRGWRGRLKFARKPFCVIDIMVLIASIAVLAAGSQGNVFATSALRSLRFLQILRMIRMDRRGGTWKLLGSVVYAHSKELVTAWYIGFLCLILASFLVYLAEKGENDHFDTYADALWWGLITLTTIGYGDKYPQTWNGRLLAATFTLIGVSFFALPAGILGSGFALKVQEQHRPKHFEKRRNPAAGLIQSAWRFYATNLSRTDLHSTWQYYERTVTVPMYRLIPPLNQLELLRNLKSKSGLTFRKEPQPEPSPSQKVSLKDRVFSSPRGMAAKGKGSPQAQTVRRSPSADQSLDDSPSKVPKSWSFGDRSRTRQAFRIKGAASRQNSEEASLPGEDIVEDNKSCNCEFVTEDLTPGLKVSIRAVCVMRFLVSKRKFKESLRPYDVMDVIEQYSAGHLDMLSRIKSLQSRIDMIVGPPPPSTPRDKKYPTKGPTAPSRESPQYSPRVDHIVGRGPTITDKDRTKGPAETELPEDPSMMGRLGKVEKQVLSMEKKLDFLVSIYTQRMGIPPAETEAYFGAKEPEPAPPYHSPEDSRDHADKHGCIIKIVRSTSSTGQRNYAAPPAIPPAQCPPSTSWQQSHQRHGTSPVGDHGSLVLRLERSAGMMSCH

melting point | EC50 [1] [µM] | Emax [1] [%] | SMILES
171 to 173 °C |  |  | CC(NC(=O)/C=C/c1ccccc1F)c1ccc2c(c1)NCCC2 (racemic)
 | 4.2 | 550 | CC(NC(=O)/C=C/c1cc(F)ccc1F)c1ccc2c(c1)OCO2 (racemic) [Example 38, (±)-N-(1-Benzo[1,3]-diox-ol-5-yl-ethyl)-3-(2,5-di-fluoro-phenyl)-acrylamide]
 | 0.0006 | 260 | CC(NC(=O)/C=C/c1ccccc1Cl)c1ccc2c(c1)OCO2 (racemic) [Example 46, (±)-N-(1-Benzo[1,3]-diox-ol-5-yl-ethyl)-3-(2-chlor-o-phenyl)-acrylamide]
130 to 132 °C (dec.) |  |  | CC(NC(=O)/C=C/c1cccc(F)c1)c1ccc2c(c1)NCCC2 (racemic) [Example 232, (±)-3-(3-Fluoro-phenyl)-N-[1-(1,2,3,4-tetrahydro-quinolin-7-yl)ethyl]-acrylamide]
144 to 146 °C |  |  | CC(NC(=O)/C=C/c1ccccc1)c1ccc2c(c1)NCCC2 (racemic) [Example 233, (±)-3-phenyl-N-[1-(1,2,3,4-tetrahydro-quinolin-7-yl)ethyl]-acrylamide]
139 to 141 °C |  |  | CC(NC(=O)/C=C/c1cc(F)ccc1F)c1ccc2c(c1)NCCC2 (racemic) [Example 234, (±)-3-(2,5-difluoro-phenyl)-N-[1-(1,2,3,4-tetrahydro-quinolin-7-yl)ethyl]-acrylamide]
125 to 127 °C (dec.) |  |  | CC(NC(=O)/C=C/c1ccc(F)cc1)c1ccc2c(c1)NCCC2 (racemic) [Example 235, (±)-3-(4-fluoro-phenyl)-N-[1-(1,2,3,4-tetrahydro-quinolin-7-yl)ethyl]-acrylamide]
60 to 63 °C |  |  | CC(NC(=O)/C=C/c1ccccc1F)c1ccc2c(c1)N(C)CCC2 (racemic) [Example 236, (±)-3-(2-fluoro-phenyl)-N-[1-(1-methyl-1,2,3,4-tetrahydro-quinolin-7-yl)ethyl]acrylamide]
52 to 55 °C |  |  | CC(NC(=O)/C=C/c1cc(F)ccc1F)c1ccc2c(c1)N(C)CCC2 (racemic) [Example 237, (±)-3-(2,5-difluoro-phenyl)-N-[1-(1-methyl-1,2,3,4-tetrahydro-quinolin-7-yl)ethyl]acrylamide]
166 °C (dec.) |  |  | CC(NC(=O)/C=C/c1ccccc1)c1ccc2c(c1)N(C)CCC2 (racemic) [Example 238, (±)-N-[1-(1-methyl-1,2,3,4-tetrahydro-quinolin-7-yl)-ethyl]-3-phenyl-acrylamide]
60 to 63 °C |  |  | CC(NC(=O)/C=C/c1cccc(F)c1)c1ccc2c(c1)N(C)CCC2 (racemic) [Example 239, (±)-3-(3-fluoro-phenyl)-N-[1-(1-methyl-1,2,3,4-tetrahydro-quinolin-7-yl)ethyl]acrylamide]
183 to 185 °C |  |  | CC(NC(=O)/C=C/c1ccc(F)cc1)c1ccc2c(c1)N(C)CCC2 (racemic) [Example 240, (±)-3-(4-fluoro-phenyl)-N-[1-(1-methyl-1,2,3,4-tetrahydro-quinolin-7-yl)ethyl]acrylamide]
50 to 52 °C |  |  | CCN1CCCc2ccc(C(C)NC(=O)/C=C/c3ccccc3)cc21 (racemic) [Example 241, (±)-N-[1-(1-ethyl-1,2,3,4-tetrahydro-quinolin-7-yl)-ethyl]-3-phenyl-acrylamide]
50 to 53 °C | 1.4 |  | CCN1CCCc2ccc(C(C)NC(=O)/C=C/c3cc(F)ccc3F)cc21 (racemic) [Example 242, (±)-3-(2,5-difluoro-phenyl)-N-[1-(1-ethyl-1,2,3,4-tetrahydro-quinolin-7-yl)ethyl]acrylamide]
65 to 68 °C |  |  | CC(=O)N1CCCc2ccc(C(C)NC(=O)/C=C/c3ccccc3)cc21 (racemic) [Example 243, (±)-N-[1-(1-acetyl-1,2,3,4-tetrahydro-quinolin-7-yl)-ethyl]-3-phenyl-acrylamide]
 | 2.9 |  | C[C@H](NC(=O)/C=C/c1ccc(Cl)cc1F)c1cccc(N2CCOCC2)c1 [Example 97, (S)-3-(4-Chloro-2-fluoro-phen-yl)-N-[1-(3-morpho-lin-4-yl-phenyl)-eth-yl]-acrylamide]
180 °C (dec.) | 5 | 290 | CC(NC(=O)/C=C/c1cc(F)cc(F)c1)c1ccc2c(c1)CCCN2 (stereo not shown) [Example 248, 3-(3,5-difluoro-phenyl)-N-[1-(1,2,3,4-tetrahydro-quinolin-6-yl)-ethyl]acrylamide]
64 to 67 °C |  |  | CC(NC(=O)/C=C/c1ccccc1)c1ccc2c(c1)CCCN2 (stereo not shown) [Example 249, 3-phenyl-N-[1-(1,2,3,4-tetrahydro-quinolin-6-yl)ethyl]acrylamide]
156 °C (dec.) |  |  | CC(NC(=O)/C=C/c1ccc(F)c(F)c1)c1ccc2c(c1)CCCN2 (stereo not shown) [Example 250, 3-(3,4-difluoro-phenyl)-N-[1-(1,2,3,4-tetrahydro-quinolin-6-yl)-ethyl]acrylamide]
149 to 151 °C (dec.) |  |  | CC(NC(=O)/C=C/c1ccccc1F)c1ccc2c(c1)CCCN2 (stereo not shown) [Example 251, 3-(2-fluoro-phenyl)-N-[1-(1,2,3,4-tetrahydro-quinolin-6-yl)ethyl]acrylamide]
55 to 58 °C |  |  | CC(NC(=O)/C=C/c1cc(F)ccc1F)c1ccc2c(c1)CCCN2 (stereo not shown) [Example 252, 3-(2,5-difluoro-phenyl)-N-[1-(1,2,3,4-tetrahydro-quinolin-6-yl)-ethyl]acrylamide]
77 to 80 °C |  |  | CC(NC(=O)/C=C/c1c(F)cccc1F)c1ccc2c(c1)CCCN2 (stereo not shown) [Example 253, 3-(2,6-difluoro-phenyl)-N-[1-(1,2,3,4-tetrahydro-quinolin-6-yl)ethyl]acrylamide]
172 to 174 °C |  |  | CC(NC(=O)/C=C/c1cccc(F)c1)c1ccc2c(c1)CCCN2 (stereo not shown) [Example 254, 3-(3-fluoro-phenyl)-N-[1-(1,2,3,4-tetrahydro-quinolin-6-yl)ethyl]acrylamide]
140 to 143 °C |  |  | CC(NC(=O)/C=C/c1ccc(F)cc1)c1ccc2c(c1)CCCN2 (stereo not shown) [Example 255, 3-(4-fluoro-phenyl)-N-[1-(1,2,3,4-tetrahydro-quinolin-6-yl)ethyl]acrylamide]
65 to 68 °C |  |  | CC(NC(=O)/C=C/c1ccccc1)c1ccc2c(c1)CCCN2C (stereo not shown) [Example 256, N-[1-(1-methyl-1,2,3,4-tetrahydro-quinolin-6-yl)-ethyl]-3-phenyl-acrylamide]
51 to 55 °C |  |  | CC(NC(=O)/C=C/c1cc(F)ccc1F)c1ccc2c(c1)CCCN2C (stereo not shown) [Example 257, 3-(2,5-difluoro-phenyl)-N-[1-(1-methyl-1,2,3,4-tetrahydro-quinolin-6-yl)ethyl]acrylamide]

SMILES | melting point | EC50 [1] [µM] | Emax [1] [%]
CCN1CCOc2ccc(C(C)NC(=O)/C=C/c3ccccc3F)cc21 (single isomer, unassigned) [Example 214, 3-(2-fluoro-phenyl)-N-[1-(4-ethyl-3,4-dihydro-2H-benzo[1,4]oxazin-6-yl)ethyl]-acrylamide] |  | 0.0009 | 260
CC(NC(=O)/C=C/c1ccccc1F)c1ccc2c(c1)N(CC1CC1)CCO2 (single isomer, unassigned) [Example 215, 3-(2-fluoro-phenyl)-N-[1-(4-cyclopropylmethyl-3,4-dihydro-2H-benzo[1,4]oxazin-6-yl)ethyl]-acrylamide] |  | 5.4 | 
